The values that follow come from patent US8552024B2, “Azacyclic compounds” (Hoffman-La Roche Inc., priority 2011, dated 2013).

This assay addresses T1, human HSL (Homo sapiens, UniProt Q05469).
T1 construct: overlapping PCR to generate a full length human HSL ORF with a 3′-His6 tag; made in house; host or cells: High 5 insect cells (baculovirus, pFast-BAC)
T1 sequence (Q05469 1-1076): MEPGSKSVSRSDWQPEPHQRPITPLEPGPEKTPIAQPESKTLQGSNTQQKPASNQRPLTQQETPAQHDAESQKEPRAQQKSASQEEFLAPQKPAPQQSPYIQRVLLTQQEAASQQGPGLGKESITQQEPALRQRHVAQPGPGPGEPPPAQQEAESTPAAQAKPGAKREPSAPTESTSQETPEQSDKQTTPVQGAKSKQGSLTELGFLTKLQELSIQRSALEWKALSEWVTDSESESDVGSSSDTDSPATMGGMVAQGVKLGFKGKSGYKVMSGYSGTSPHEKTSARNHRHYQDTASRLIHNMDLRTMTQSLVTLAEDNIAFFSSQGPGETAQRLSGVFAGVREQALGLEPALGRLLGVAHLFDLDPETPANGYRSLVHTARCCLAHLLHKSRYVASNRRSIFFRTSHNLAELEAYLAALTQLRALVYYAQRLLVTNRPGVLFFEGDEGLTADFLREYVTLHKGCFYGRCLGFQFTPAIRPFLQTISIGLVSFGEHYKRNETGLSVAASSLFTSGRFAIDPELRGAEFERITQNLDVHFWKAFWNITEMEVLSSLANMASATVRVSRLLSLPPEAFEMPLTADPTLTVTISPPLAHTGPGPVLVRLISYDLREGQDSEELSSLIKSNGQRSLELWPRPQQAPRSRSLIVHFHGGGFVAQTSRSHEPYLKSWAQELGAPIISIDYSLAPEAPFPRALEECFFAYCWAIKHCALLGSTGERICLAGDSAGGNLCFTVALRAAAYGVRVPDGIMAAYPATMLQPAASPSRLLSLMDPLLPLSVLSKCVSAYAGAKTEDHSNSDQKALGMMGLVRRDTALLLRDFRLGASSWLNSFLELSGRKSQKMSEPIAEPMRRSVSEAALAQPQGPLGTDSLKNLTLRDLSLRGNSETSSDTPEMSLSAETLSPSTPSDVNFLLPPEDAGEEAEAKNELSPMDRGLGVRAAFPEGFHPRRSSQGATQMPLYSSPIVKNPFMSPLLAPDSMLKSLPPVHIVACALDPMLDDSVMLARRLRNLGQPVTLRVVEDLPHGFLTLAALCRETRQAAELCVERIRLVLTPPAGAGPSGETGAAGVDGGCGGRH
Kind of assay: Human Hormone-Sensitive Lipase (HSL) enzyme inhibition assay (colorimetric, DMPT substrate). It is filed as biochemical. To be noted: human full length HSL-His6; substrate 2,3-dimercapto-1-propanol tributyrate; 37° C., 20 minutes; absorbance at 405 nm; read-out: HSL hum IC50. On the procedure: Production of Human full length Hormone Sensitive Lipase-His^6:
1) Cloning: cDNA was prepared from commercial human brain polyA+ RNA and used as a template in overlapping PCR to generate a full length human HSL ORF with a 3′-His6 tag. This full length insert was cloned into the pFast-BAC vector and the DNA-sequence of several single clones was verified. DNA from a correct full length clone with the 3′His6 tag was used to transform the E. coli strain DH10BAC. Resulting bacmid DNA was used to generate a titered baculovirus stock for protein generation. The sequence of the encoded HSL conforms to Swissprot entry Q05469, with the additional C-terminal His6-tag. 2) Protein purification: Culture: 5.5 L, High 5 cells expressing human full length HSL-His^6, 48 hr., containing 25 μM E-64. Cell count: 1.78×10^10 cells/ml, 90% viable. Cells were thawed. On ice, cells were suspended in Base Buffer containing 10% glycerol, 25 mM Tris-Cl, 300 mM NaCl, 10 mM imidazole, 10 mM 2-mercaptoethanol, 2 μg pepstatin/ml, 2 μg leupeptin/ml, 2 μg antipain/ml, pH 8.0 at 4° C. in a final volume of 475 ml with 3.75×10^7 cells/ml. […] was done at 3×30 sec., Lubrol PX was added to 0.2% final concentration followed by stirring for 15 min. at 4° C. and centrifugation at 25 k×g, 60 min., 4° C. Soluble proteins were mixed with 60 ml of pre-washed and equilibrated Ni-NTA Agarose (Qiagen 30210) followed by tumbling end-over-end, 45 min., 4° C., centrifugation 1000 rpm 5 min and letting resin settle 5 min. Supernatant was removed, the resin washed in the centrifuge vessel using 5 volumes of Base Buffer containing 0.2% Lubrol PX. Centrifugation was done again, then the supernatant discarded. The resin was poured onto a 0.8 μm membrane in a disposable filter unit (Nalge 450-0080), and washed with 5 volumes of Base Buffer containing 0.2% Lubrol PX. It was then washed with 30 volumes of Base Buffer containing 60 mM imidazole pH 7.5 at 4° C. The protein was eluated with 5 volumes of 25 mM Tris-Cl, 300 mM NaCl, 200 mM imidazole, 10 mM 2-mercaptoethanol, pH 7.5 at 4° C. by tumbling resin with buffer end-over-end, 30 min., 4° C. The resin was captured on a 0.2 μm membrane disposable filter unit (Millipore SCGP U02 RE) and the eluate collected in the reservoir. The eluate was concentrated using a 30 k MWCO centrifugal filter device (Sartorius Vivascience Vivacell 100, VC1022), to 20 ml. It was then dialyzed overnight at 4° C., two times against 2 L of 10% glycerol, 25 mM Tris-Cl, 300 mM NaCl, 0.2 mM EDTA, 0.2 mM DTT, pH 7.5 at 4° C. The protein was filtered using a 0.22 μm disposable filter unit (Millipore SCGP00525). The protein concentration was calculated from absorbance at 280 nm, using 280=0.67 cm-1 mg-1. Yield was 235 mg, total. The protein was stored at −80° C.
Human Hormone-Sensitive Lipase (HSL) Enzyme Inhibition Assay:
HSL enzyme activity was measured by a colorimetric assay using 2,3-dimercapto-1-propanol tributyrate (Aldrich, St. Louis, Mo.) as a substrate. Typically, 1.5 mM 2,3-dimercapto-1-propanol tributyrate (DMPT) in 100 mM MOPS, pH 7.2, 0.2 mg/ml fatty acid-free BSA was prepared by sonication at 4° C. to homogenous suspension. Test compounds (2 mM stock in DMSO) were diluted 3 fold in series in DMSO. Compound solutions were diluted 24 fold in 1.5 mM DMPT containing solution and 18 ul per well was added to 384-well microplates (Corning Costar). Twelve microliters per well of human HSL (15 ug/ml) was added and the reaction mixture was incubated at 37° C. for 20 minutes. Six microliters of 12 mM dithio-bis-(2-nitrobenzoic acid) (DTNB) in DMSO plus 1.2% SDS and 0.6% Triton X-100 were added and the mixture was incubated at room temperature for 15 minutes. Product production was monitored by reading absorbance at 405 nm on an Envision Reader (PerkinElmer Life and Analytical Sciences, Shelton, Conn.).

As for `Cc1cnc(F)c(N2CCC3(CC2)CCN(c2ccc(OC(F)(F)F)cc2)C3=O)c1` [Example 10, 8-(2-fluoro-5-methylpyridin-3-yl)-2-(4-(trifluoromethoxy)phenyl)-2,8-diazaspiro[4.5]decan-1-one], the IC50 came to 240 nM. As to `Cc1ccc(O)c(N2CCC3(CC2)CCN(c2ccc(OC(F)(F)F)cc2)C3=O)c1` [Example 14, 8-(2-Hydroxy-5-methyl-phenyl)-2-(4-trifluoromethoxy-phenyl)-2,8-diaza-spiro[4.5]decan-1-one], the IC50 was found to be 60 nM. For the compound `O=C1N(c2ccc(OC(F)(F)F)cc2)CCC12CCN(c1cc(C(F)(F)F)ccc1F)CC2` [Example 2, 8-(2-Fluoro-5-trifluoromethyl-phenyl)-2-(4-trifluoromethoxy-phenyl)-2,8-diaza-spiro[4.5]decan-1-one], the IC50 was found to be 550 nM. Next, `O=C1N(c2ccc(OC(F)(F)F)cc2)CCC12CCN(c1ccc(C(F)(F)F)cc1F)CC2` [Example 1, 8-(2-Fluoro-4-trifluoromethyl-phenyl)-2-(4-trifluoromethoxy-phenyl)-2,8-diaza-spiro[4.5]decan-1-one]: 920 nM; `O=C1N(c2ccc(OC(F)(F)F)cc2)CCC12CCN(c1cccc(OCc3ccccc3)n1)CC2` [Example 16, 8-(6-Benzyloxy-pyridin-2-yl)-2-(4-trifluoromethoxy-phenyl)-2,8-diaza-spiro[4.5]decan-1-one]: 900 nM. In the case of `O=C1N(c2ccc(OC(F)(F)F)cc2)CCC12CCN(c1ccccc1F)CC2` [Example 3, 8-(2-Fluoro-phenyl)-2-(4-trifluoromethoxy-phenyl)-2,8-diaza-spiro[4.5]decan-1-one], the IC50 came out at 310 nM. As for `CCCn1cccc(N2CCC3(CC2)CCN(c2ccc(OC(F)(F)F)cc2)C3=O)c1=O` [Example 12, 8-(2-Oxo-1-propyl-1,2-dihydro-pyridin-3-yl)-2-(4-trifluoromethoxy-phenyl)-2,8-diaza-spiro[4.5]decan-1-one], the IC50 turned out to be 30 nM.

With `O=C1N(c2ccc(OC(F)(F)F)cc2)CCC12CCN(c1ccccc1O)CC2` [Example 13, 8-(2-Hydroxy-phenyl)-2-(4-trifluoromethoxy-phenyl)-2,8-diaza-spiro[4.5]decan-1-one], the IC50 was 50 nM. Next, `COc1ncccc1N1CCC2(CC1)CCN(c1ccc(OC(F)(F)F)cc1)C2=O` [Example 9, 8-(2-Methoxy-pyridin-3-yl)-2-(4-trifluoromethoxy-phenyl)-2,8-diaza-spiro[4.5]decan-1-one]: 110 nM; `COc1ccc(C)cc1N1CCC2(CC1)CCN(c1ccc(OC(F)(F)F)cc1)C2=O` [Example 8, 8-(2-Methoxy-5-methyl-phenyl)-2-(4-trifluoromethoxy-phenyl)-2,8-diaza-spiro[4.5]decan-1-one]: 100 nM. Under `COc1ccccc1N1CCC2(CC1)CCN(c1ccc(OC(F)(F)F)cc1)C2=O` [Example 7, 8-(2-Methoxy-phenyl)-2-(4-trifluoromethoxy-phenyl)-2,8-diaza-spiro[4.5]decan-1-one] stands 110 nM.

As for `O=C1N(c2ccc(OC(F)(F)F)cc2)CCC12CCN(c1c(F)cccc1F)CC2` [Example 6, 8-(2,6-Difluoro-phenyl)-2-(4-trifluoromethoxy-phenyl)-2,8-diaza-spiro[4.5]decan-1-one], the IC50 came out at 960 nM. As to `O=C1N(c2ccc(OC(F)(F)F)cc2)CCC12CCN(c1cccc(OC(F)(F)F)c1)CC2` [Example 4, 8-(3-Trifluoromethoxy-phenyl)-2-(4-trifluoromethoxy-phenyl)-2,8-diaza-spiro[4.5]decan-1-one], the IC50 came to 630 nM. Regarding `O=C1N(c2ccc(OC(F)(F)F)cc2)CCC12CCN(c1cccc(O)n1)CC2` [Example 17, 8-(6-Hydroxy-pyridin-2-yl)-2-(4-trifluoromethoxy-phenyl)-2,8-diaza-spiro[4.5]decan-1-one], the IC50 was 250 nM. `Cn1cccc(N2CCC3(CC2)CCN(c2ccc(OC(F)(F)F)cc2)C3=O)c1=O` [Example 11, 8-(1-methyl-2-oxo-1,2-dihydropyridin-3-yl)-2-(4-(trifluoromethoxy)phenyl)-2,8-diazaspiro[4.5]decan-1-one]: the IC50 came to 20 nM. As to `O=C1N(c2ccc(OC(F)(F)F)cc2)CCC12CCN(c1ccccc1Cl)CC2` [Example 5, 8-(2-Chloro-phenyl)-2-(4-trifluoromethoxy-phenyl)-2,8-diaza-spiro[4.5]decan-1-one], the IC50 worked out at 710 nM. As for `O=C1N(c2ccc(OC(F)(F)F)cc2)CCC12CCN(c1cccnc1O)CC2` [Example 15, 8-(2-Hydroxy-pyridin-3-yl)-2-(4-trifluoromethoxy-phenyl)-2,8-diaza-spiro[4.5]decan-1-one], the IC50 was 40 nM. For `C[C@H](Oc1ccc(N2CCC3(CCN(c4cccn(C)c4=O)CC3)C2=O)cc1)C(F)(F)F` [Example 18, 8-(1-Methyl-2-oxo-1,2-dihydro-pyridin-3-yl)-2-[4-((S)-2,2,2-trifluoro-1-methyl-ethoxy)-phenyl]-2,8-diaza-spiro[4.5]decan-1-one], the IC50 came out at 20 nM.

A word on the IC50: it is the concentration that gives 50% inhibition.
